# Target: Histone deacetylase 2 (Homo sapiens, UniProt Q92769)
# Assay: Inhibition of full-length recombinant human C-terminal GST tagged HDAC2 expressed in Sf9 insect cells using aminoluciferin peptide substrate at 100 nM preincubated for 3 hrs followed by substrate addition and measured after 30 mins by HDAC-Glo I/II chemiluminescence assay
# Details: time 3.5 hrs
# Sequence of Histone deacetylase 2 (Q92769 whole entry): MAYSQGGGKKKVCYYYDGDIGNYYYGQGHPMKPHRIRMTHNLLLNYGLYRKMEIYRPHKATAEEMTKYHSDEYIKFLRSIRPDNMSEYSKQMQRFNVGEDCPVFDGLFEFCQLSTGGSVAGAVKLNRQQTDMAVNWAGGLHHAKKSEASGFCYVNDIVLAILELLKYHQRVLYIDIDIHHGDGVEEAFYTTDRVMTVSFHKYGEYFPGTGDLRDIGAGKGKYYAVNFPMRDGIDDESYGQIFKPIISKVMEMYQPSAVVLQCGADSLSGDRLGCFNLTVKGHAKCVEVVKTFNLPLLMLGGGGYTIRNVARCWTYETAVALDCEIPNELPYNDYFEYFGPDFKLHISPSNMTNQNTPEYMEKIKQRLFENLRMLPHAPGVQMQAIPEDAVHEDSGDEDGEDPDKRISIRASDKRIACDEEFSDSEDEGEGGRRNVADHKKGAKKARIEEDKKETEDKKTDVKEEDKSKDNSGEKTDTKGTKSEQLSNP
row,Compound,inhibition [%]
1,Nc1ccc(-c2ccsc2)cc1NC(=O)c1cn(CS(=O)(=O)c2ccccc2)nn1,14
2,Nc1ccc(-c2ccc(F)cc2)cc1NC(=O)c1cn(-c2ccc(Br)cc2)nn1,10
3,Cc1ccccc1CCn1cc(CCC(=O)Nc2cc(-c3ccsc3)ccc2N)nn1,14
4,Cc1csc(CCn2cc(CCC(=O)Nc3cc(-c4ccsc4)ccc3N)nn2)n1,39
5,Nc1ccc(-c2ccsc2)cc1NC(=O)CCc1cn(CCCc2ccccc2)nn1,19
6,Nc1ccc(-c2ccccc2)cc1NC(=O)CCc1cn(CCCCCc2ccccc2)nn1,0
7,Nc1ccc(-c2ccc(F)cc2)cc1NC(=O)CCc1cn(CCc2ccccc2[N+](=O)[O-])nn1,20
8,Nc1ccc(-c2ccsc2)cc1NC(=O)CCc1cn(Cc2ccc3ccccc3c2)nn1,16
9,Nc1ccc(-c2ccsc2)cc1NC(=O)CCc1cn(CCCCCCC(=O)O)nn1,0
10,Cc1csc(CCn2cc(C(=O)Nc3cc(-c4ccc(F)cc4)ccc3N)nn2)n1,10
11,Nc1ccc(-c2ccc(F)cc2)cc1NC(=O)c1cn(CCc2c[nH]c3ccccc23)nn1,5
12,Nc1ccc(-c2ccccc2)cc1NC(=O)c1cn(Cc2cc3ccccc3s2)nn1,0
13,Nc1ccc(-c2cccnc2)cc1NC(=O)CCc1cn(Cc2ccc3ccccc3c2)nn1,19
14,Nc1ccc(-c2cccnc2)cc1NC(=O)CCc1cn(CCc2ccccc2)nn1,23
15,Nc1ccc(-c2cccnc2)cc1NC(=O)CCc1cn(CCc2ccc(Cl)cc2)nn1,7
16,Nc1ccc(-c2ccsc2)cc1NC(=O)CCc1cn(CCc2ccc([N+](=O)[O-])cc2)nn1,20
17,Nc1ccc(-c2cccnc2)cc1NC(=O)CCc1cn(Cc2ccc(-c3ccccc3)cc2)nn1,8
18,Nc1ccc(-c2ccsc2)cc1NC(=O)CCc1cn(CC(=O)Nc2ccc(F)cc2)nn1,14
19,COc1ccc(CCn2cc(CCC(=O)Nc3cc(-c4cccnc4)ccc3N)nn2)cc1,21

row,Compound,inhibition [%]
1,COc1ccc(CCn2cc(C(=O)Nc3cc(-c4ccsc4)ccc3N)nn2)cc1,6
2,Cc1ccc(-n2cc(CCC(=O)Nc3cc(-c4cccs4)ccc3N)nn2)cc1C,0
3,Nc1ccc(-n2cc(CCC(=O)Nc3cc(-c4ccc(F)cc4)ccc3N)nn2)cc1,21
4,Nc1ccc(-c2ccc(F)cc2)cc1NC(=O)CCc1cn(Cc2ccc3ccccc3n2)nn1,26
5,Nc1ccc(-c2ccsc2)cc1NC(=O)CCc1cn(-c2ccc(O)cc2)nn1,16
6,Nc1ccc(-c2ccc(F)cc2)cc1NC(=O)c1cn(Cc2cc3ccccc3s2)nn1,7
7,Nc1ccc(-c2ccccc2)cc1NC(=O)CCc1cn(C[S+]([O-])c2ccccc2)nn1 (stereo not given),8
8,Nc1ccc(-c2ccccc2)cc1NC(=O)CCc1cn(CCc2ccccc2)nn1,24
9,COc1ccc(-n2cc(C(=O)Nc3cc(-c4ccc(F)cc4)ccc3N)nn2)cc1,16
10,Nc1ccc(-c2ccccc2)cc1NC(=O)CCc1cn(Cc2ccc(OC(F)(F)F)cc2)nn1,0
11,COc1ccc(Cn2cc(CCC(=O)Nc3cc(-c4ccc(F)cc4)ccc3N)nn2)cc1,17
12,Nc1ccc(-c2ccc(F)cc2)cc1NC(=O)CCc1cn(CCc2ccc([N+](=O)[O-])cc2)nn1,20
13,Nc1ccc(-c2ccccc2)cc1NC(=O)CCc1cn(CCCCCC(=O)O)nn1,0
14,Cc1csc(CCn2cc(CCC(=O)Nc3cc(-c4ccc(F)cc4)ccc3N)nn2)n1,37
15,Nc1ccc(-c2cccs2)cc1NC(=O)c1cccc(-c2cn(-c3ccc(I)cc3)nn2)c1,7
16,Cc1ccccc1CCn1cc(C(=O)Nc2cc(-c3ccc(F)cc3)ccc2N)nn1,0
17,Nc1ccc(-c2cccnc2)cc1NC(=O)CCc1cn(-c2ccc(O)cc2)nn1,0
18,Nc1ccc(-c2cccnc2)cc1NC(=O)CCc1cn(CCCCC(=O)O)nn1,0
19,Nc1ccc(-c2ccc(F)cc2)cc1NC(=O)CCc1cn(CCc2ccc(Cl)cc2)nn1,3

row,Compound,inhibition [%]
1,Nc1ccc(-c2ccsc2)cc1NC(=O)CCc1cn(CCc2cccc(Cl)c2)nn1,15
2,Nc1ccc(-c2cccs2)cc1NC(=O)CCc1cn(CCC23CC4CC(CC(C4)C2)C3)nn1,5
3,Nc1ccc(-c2ccsc2)cc1NC(=O)CCc1cn(/C=C/c2ccccc2)nn1,2
4,Nc1ccc(-c2ccccc2)cc1NC(=O)c1cn(CCN2CCOCC2)nn1,0
5,Nc1ccc(-c2ccsc2)cc1NC(=O)CCc1cn(CCC2CCCC2)nn1,0
6,Nc1ccc(-c2ccccc2)cc1NC(=O)c1cn(CCC2CCCCC2)nn1,0
7,Nc1ccc(-c2ccc(F)cc2)cc1NC(=O)CCc1cn(Cc2nc3ccccc3[nH]2)nn1,32
8,Nc1ccc(-c2ccsc2)cc1NC(=O)CCc1cn(CCCCCCCC(=O)O)nn1,1
9,Nc1ccc(-c2ccc(F)cc2)cc1NC(=O)CCc1cn(CCN2CCc3ccccc3C2)nn1,18
10,COc1ccc(CCn2cc(CCC(=O)Nc3cc(-c4ccsc4)ccc3N)nn2)cc1,29
11,Nc1ccc(-c2cccs2)cc1NC(=O)c1ccc(-c2cn(Cc3ccc(-c4ccccc4)cc3)nn2)cc1,0
12,Nc1ccc(-c2cccs2)cc1NC(=O)CCc1cn(CCCCC(=O)O)nn1,2
13,Nc1ccc(-c2ccsc2)cc1NC(=O)CCc1cn(CCc2ccc(Cl)cc2)nn1,2
14,Nc1ccc(-c2cccs2)cc1NC(=O)c1cn(Cc2ccc(OC(F)(F)F)cc2)nn1,14
15,Nc1ccc(-c2cccs2)cc1NC(=O)c1cccc(-c2cn(-c3ccc(O)cc3)nn2)c1,13
16,Nc1ccc(-c2ccsc2)cc1NC(=O)c1cn(CCCCCC(=O)O)nn1,0
17,Nc1ccc(-c2ccsc2)cc1NC(=O)CCc1cn(CCc2ccsc2)nn1,19
18,Nc1ccc(-c2ccsc2)cc1NC(=O)c1cn(CCc2cccc(C(F)(F)F)c2)nn1,0

# Other lines, results leading:
row,inhibition [%],Compound
1,71,Nc1ccc(-c2cccs2)cc1NC(=O)c1ccc(-c2cn(CCc3ccccn3)nn2)s1
2,16,Nc1ccc(-c2cccs2)cc1NC(=O)c1ccc(-c2cn(CCCc3ccccc3)nn2)s1
3,6,Nc1ccc(-c2cccs2)cc1NC(=O)c1cccc(-c2cn(C[S+]([O-])c3ccccc3)nn2)c1 (stereo not given)
4,36,Nc1ccc(-c2cccs2)cc1NC(=O)c1ccc(-c2cn(CCCCC(=O)O)nn2)cc1
5,10,Nc1ccc(-c2cccs2)cc1NC(=O)CCc1cn(CCCc2ccccc2)nn1
6,4,Nc1ccc(-c2cccs2)cc1NC(=O)c1cccc(-c2cn(CCCc3ccccc3)nn2)c1
7,0,Nc1ccc(-c2ccccc2)cc1NC(=O)c1cn(CCc2ccccn2)nn1
8,61,Nc1ccc(-c2cccs2)cc1NC(=O)c1ccc(-c2cn(CC(=O)c3ccccc3)nn2)cc1
9,11,Cc1cccc(CCn2cc(C(=O)Nc3cc(-c4cccs4)ccc3N)nn2)c1
10,14,Nc1ccc(-c2cccs2)cc1NC(=O)c1ccc(-c2cn(Cc3cccc4ccccc34)nn2)cc1
11,30,COc1ccc(CCn2cc(-c3ccc(C(=O)Nc4cc(-c5cccs5)ccc4N)s3)nn2)cc1
12,0,Nc1ccc(-c2cccs2)cc1NC(=O)c1ccc(-c2cn(Cc3cccc(C(=O)O)c3)nn2)cc1
13,0,Nc1ccc(-c2cccs2)cc1NC(=O)c1cccc(-c2cn(-c3cccc4ccccc34)nn2)c1
14,0,Nc1ccc(-c2ccccc2)cc1NC(=O)c1cn(CCc2ccc(Cl)cc2)nn1
15,0,Nc1ccc(-c2cccs2)cc1NC(=O)c1ccc(-c2cn(CCc3cccc4ccccc34)nn2)cc1
16,0,Nc1ccc(-c2cccs2)cc1NC(=O)c1ccc(-c2cn(Cc3ccc(OC(F)(F)F)cc3)nn2)s1
17,13,Nc1ccc(-c2cccs2)cc1NC(=O)c1cn(CCc2cccc([N+](=O)[O-])c2)nn1
18,9,Nc1ccc(-c2cccs2)cc1NC(=O)CCc1cn(CCc2cccc(Cl)c2)nn1
19,26,Nc1ccc(-c2cccs2)cc1NC(=O)CCc1cn(CCc2ccccc2)nn1
20,3,Nc1ccc(-c2cccs2)cc1NC(=O)c1ccc(-c2cn(Cc3ccc4ccccc4c3)nn2)s1

row,inhibition [%],Compound
1,0,Nc1ccc(-c2ccccc2)cc1NC(=O)c1cn(CCc2ccsc2)nn1
2,51,Nc1ccc(-c2cccs2)cc1NC(=O)c1ccc(-c2cn(CCCCC(=O)O)nn2)s1
3,19,Cc1ccc(CCn2cc(-c3ccc(C(=O)Nc4cc(-c5cccs5)ccc4N)cc3)nn2)cc1
4,0,Nc1ccc(-c2cccs2)cc1NC(=O)c1cccc(-c2cn(CCc3cccc(Cl)c3)nn2)c1
5,0,Nc1ccc(-c2cccs2)cc1NC(=O)c1cccc(-c2cn(CCC3CCCCC3)nn2)c1
6,18,Nc1ccc(-c2cccs2)cc1NC(=O)CCc1cn(CCc2c[nH]c3ccccc23)nn1
7,0,Nc1ccc(-c2cccs2)cc1NC(=O)c1ccc(-c2cn(CCc3cccc4ccccc34)nn2)s1
8,4,Nc1ccc(-c2cccs2)cc1NC(=O)c1cccc(-c2cn(Cc3ccc4ccccc4n3)nn2)c1
9,3,Nc1ccc(-c2cccs2)cc1NC(=O)c1cccc(-c2cn(CS(=O)(=O)c3ccccc3)nn2)c1
10,0,Cc1ccccc1CCn1cc(-c2ccc(C(=O)Nc3cc(-c4cccs4)ccc3N)cc2)nn1
11,27,Nc1ccc(-c2cccs2)cc1NC(=O)c1ccc(-c2cn(CCc3ccsc3)nn2)s1
12,0,Nc1ccc(-c2cccs2)cc1NC(=O)c1cccc(-c2cn(CCc3ccsc3)nn2)c1
13,14,COc1ccc(-n2cc(CCC(=O)Nc3cc(-c4cccs4)ccc3N)nn2)cc1
14,13,Nc1ccc(-c2cccs2)cc1NC(=O)c1cn(Cc2cccc3ccccc23)nn1
15,13,Nc1ccc(-c2cccs2)cc1NC(=O)CCc1cn(CC(=O)c2ccccc2)nn1
16,1,Nc1ccc(-c2ccsc2)cc1NC(=O)c1cn(CCc2ccccn2)nn1
17,0,Nc1ccc(-c2cccs2)cc1NC(=O)c1ccc(-c2cn(CCC34CC5CC(CC(C5)C3)C4)nn2)s1
18,52,Nc1ccc(-c2cccs2)cc1NC(=O)c1ccc(-c2cn(Cc3ccc4ccccc4n3)nn2)cc1
19,19,Nc1ccc(-c2cccs2)cc1NC(=O)c1ccc(-c2cn(CCc3c[nH]c4ccccc34)nn2)cc1
